From ChEMBL document CHEMBL3988442, “University of Dundee, Small-Polar-MMV Screening Library” (2021) come the findings set out here.

One assay relates to Schistosoma mansoni. In words: High throughput screening of compounds against Schistosoma mansoni motility. Format: functional. Further details: dose or concentration left out as unconfirmed.
Assay [1] in a line: microbe, parasite or virus in culture. The following applies: Mycobacterium tuberculosis, 96 h, read-out: pIC50 (converted).
Assay [2] is described as follows: microbe, parasite or virus in culture. The conditions noted are these: Mycobacterium tuberculosis, 72 h, read-out: pIC50 (converted).
In another assay the target is ClpP1P2 (Mycobacterium tuberculosis (strain ATCC 25618 / H37Rv), UniProt P9WPC3+P9WPC5). In words: in vitro assay to detect presence of AMC directly proportional to the activity of ClpP1P2. GHDDI collaboration. Format: functional.
For another assay, the system named is Plasmodium falciparum. The assay can be described thus: Calibr Malaria Delayed Death Assay SOP. Format: functional, organism-based. The conditions noted are these: for IC50: Plasmodium falciparum.

SMILES strings stand for the structures.

Chain of ClpP1P2 (P9WPC5 whole entry): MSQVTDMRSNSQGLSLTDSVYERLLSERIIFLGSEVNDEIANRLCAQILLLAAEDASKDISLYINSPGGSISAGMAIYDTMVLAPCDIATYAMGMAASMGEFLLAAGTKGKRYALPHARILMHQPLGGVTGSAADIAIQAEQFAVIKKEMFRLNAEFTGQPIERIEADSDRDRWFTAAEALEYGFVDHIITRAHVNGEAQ
Chain of ClpP1P2 (P9WPC3 whole entry): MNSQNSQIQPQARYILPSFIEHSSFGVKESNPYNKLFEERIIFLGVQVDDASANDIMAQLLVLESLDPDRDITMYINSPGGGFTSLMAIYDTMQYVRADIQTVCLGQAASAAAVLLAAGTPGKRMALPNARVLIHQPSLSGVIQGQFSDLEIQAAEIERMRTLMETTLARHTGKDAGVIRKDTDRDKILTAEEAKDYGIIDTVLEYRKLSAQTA

`Cc1ccc(C(=O)N2CCC3(CCC(=O)N(CC(N)=O)C3)CC2)c(O)c1`: in the assay with Schistosoma mansoni, the “Percent Effect” value is -13.5%.

Regarding `COc1ccc(NC(=O)NC(C)(C)c2noc(C)n2)cc1`, in the assay on Schistosoma mansoni, the “Percent Effect” value is -52.77%.

As to `CC(C1CC1)N(C(=O)NCCCn1nc2ccccn2c1=O)C1CC1` (configuration not stated), the “Percent Effect” value in the assay on Schistosoma mansoni is recorded as -46.88%.

Take `CN(CCCc1cnn(C)c1)C(=O)C1COc2ccccc2C1` (configuration not stated): the “Percent Effect” value with Schistosoma mansoni is -70.43%.

On to `CC(C)C1CN(c2ncccn2)CCC(=O)N1Cc1ccc(F)cc1` (configuration not stated), for which the “Percent Effect” value in the assay with Schistosoma mansoni was -32.66%.

As to `CC(c1ccccc1)n1c(SCC(=O)O)nnc1-c1ccccc1Cl` (configuration not stated), the “Percent Effect” value in the assay with Schistosoma mansoni worked out at 15.81%.

In the case of `CCn1nc2c(cc1=O)CN(Cc1nc(N)c3ccccc3n1)CC2`, the “Percent Effect” value in the assay with Schistosoma mansoni is given as -40.99%.

For the compound `CC(C)CNC(=O)Nc1ccc(CN2CCOC2=O)cc1`, in the assay on Schistosoma mansoni, the “Percent Effect” value is reported as 8.42%.

Regarding `CC(C)NC(=O)NCCCc1cc(N)n(-c2ccccc2)n1`, in the assay with Schistosoma mansoni, the “Percent Effect” value was -56.45%.

`COCc1ccccc1NC(=O)[C@@H]1CCCN1C(=O)c1ccco1`: the “Percent Effect” value in the assay with Schistosoma mansoni is on record as -9.117%.

Turning to `O=C(CCc1ccc(=O)[nH]n1)N1CCCC(COc2ccc(F)cc2)C1` (configuration not stated), in the assay on Schistosoma mansoni, the “Percent Effect” value was determined as 4.924%.

Turning to `CNC(=O)CSc1nc2c(cnn2Cc2ccc(F)cc2)c(=O)[nH]1`, in the assay with Schistosoma mansoni, the “Percent Effect” value was -34.73%.

On to `COCCNC(=O)Cn1nc(C(C)C)c2cnn(C(C)(C)C)c2c1=O`, for which the “Percent Effect” value in the assay with Schistosoma mansoni is listed as -20.39%.

On to `O=C(c1cn(-c2cc(N3CCOCC3)ncn2)cn1)N1CCSCC1`, for which the “Percent Effect” value with Schistosoma mansoni is -64.76%.

Turning to `CCOc1ncccc1NC(=O)c1sccc1C`, in the assay on Schistosoma mansoni, the “Percent Effect” value is on record as -42.63%.

Turning to `CC(C)C1CN(c2ncc(F)cn2)CCC(=O)N1Cc1ccc(F)cc1` (configuration not stated), the “Percent Effect” value in the assay on Schistosoma mansoni is listed as 75.74%.

Consider `Cc1cc(C[C@@H]2COC[C@@H]2NC(=O)Cn2c(=O)oc3ccccc32)on1`, for which the “Percent Effect” value in the assay with Schistosoma mansoni is -26.12%.

For the compound `Nc1cc(CCCNC(=O)NC2CC2)nn1-c1ccccc1`, the “Percent Effect” value with Schistosoma mansoni is recorded as -35.32%.

For `Cn1c(Cn2ccnc2)nnc1C1CCN(Cc2cccnc2N)CC1`, in the assay with Schistosoma mansoni, the “Percent Effect” value is -10.4%.

Turning to `CNc1nc(C(=O)N2CCCC(c3nccn3CC3CCC3)C2)cs1` (configuration not stated), the “Percent Effect” value with Schistosoma mansoni is -15.23%.

Regarding `CCc1cc(=O)[nH]c2nnc(SCC(=O)OC)n12`, the “Percent Effect” value in the assay on Schistosoma mansoni is reported as -72.76%.

With `Cc1csc(N2CCN(Cc3cnc(C)s3)CC2C)n1` (configuration not stated), the “Percent Effect” value in the assay with Schistosoma mansoni was -30.28%.

For `Cc1cc2nc(C(C)C)cc(N(C)CC3CCN(C(C)C)C3)n2n1` (configuration not stated), the IC50 was above 50.1 µM in assay [1], above 50.1 µM in assay [2] and above 100 µM at ClpP1P2.

On to `O[C@@H]1CN(c2cnc3ccccc3n2)CC[C@H]1c1ccc2c(c1)OCO2`, for which the IC50 in assay [1] was 2.21 µM; in assay [2] it was 3.18 µM; on ClpP1P2 it was above 100 µM.

On to `CCn1cncc1CN1CCN(CC2(c3ccc(C)cc3)CC2)CC1.Cl`, for which, on ClpP1P2, the IC50 is above 100 µM. Also, in the assay on Plasmodium falciparum, the pIC50 is given as 6 and the IC50 was 1.11 µM.

Take `COC(=O)CNC(=O)c1cn(-c2ccccn2)c(=O)c2ccccc12`: the IC50 in assay [1] is above 50.1 µM; in assay [2], above 50.1 µM; at ClpP1P2, above 100 µM.

Take `COc1cccc(C(C)Nc2ncnc3c2NC(=O)CN3)c1` (configuration not stated): the IC50 is above 50.1 µM in assay [1], above 50.1 µM in assay [2] and above 100 µM on ClpP1P2.

Turning to `CC(C)n1ccc(-c2cc(C(=O)NC3CC3)c3ccccn23)n1`, the IC50 in assay [1] is 14 µM; in assay [2], 16.5 µM; on ClpP1P2, above 100 µM.

Turning to `OCC1(CC2CCCCO2)CCN(c2cnc3ccccc3n2)CC1` (configuration not stated), the IC50 in assay [1] is 10.7 µM; in assay [2], 13.4 µM; at ClpP1P2, above 100 µM.

On to `Cc1cc(C)c2cc(CNC3CCCCC3)c3nn(C)c(=O)n3c2c1`, for which the results for the IC50 on ClpP1P2 and in the assay on Plasmodium falciparum were above 100 µM and 1.04 µM, respectively. In the assay on Plasmodium falciparum, this compound returned a pIC50 of 5.941.

Take `CC(C)OCc1ccc(CNc2cncc(-n3cccn3)n2)cc1`: the IC50 in assay [1] was 17 µM; in assay [2] it was above 50.1 µM; at ClpP1P2 it was above 100 µM.

Regarding `COCCN1CCC(CNC(=O)C2(c3ccc(Br)cc3)CCCC2)C1` (configuration not stated), the IC50 at ClpP1P2 was above 100 µM. In addition, in the assay with Plasmodium falciparum, the pIC50 turned out to be 6.366 and the IC50 is 0.541 µM.

In general, pIC50 refers to −log10 of the IC50, conventionally taken in molar units.
